Results reported in ChEMBL document CHEMBL1201862, “PubChem BioAssay data set” (2004).
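Test compounds were applied to cells in 96-well plates for 48 hours at 5 doses. Abbreviation: GI50, concentration required for 50% inhibition of growth.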 Calls of active or inactive are those of the source. No stated cut-off is given here; in the data, active = GI50 up to about 1.1 µM and inactive = higher.

Experiments:
Assay in all cases: NCI anticancer screen, dose series, 48 h
786-0 = system: 786-0
A549 = system: A549
EKVX = system: EKVX
HCC 2998 = system: HCC 2998
HOP-62 = system: HOP-62
MCF7 = system: MCF7
MDA-N = system: MDA-N
OVCAR-8 = system: OVCAR-8
RXF 393 = system: RXF 393
SF-268 = system: SF-268
SF-295 = system: SF-295
SK-MEL-28 = system: SK-MEL-28
SK-MEL-2 = system: SK-MEL-2
SK-MEL-5 = system: SK-MEL-5
SN12C = system: SN12C
SNB-19 = system: SNB-19
SNB-75 = system: SNB-75
UACC-257 = system: UACC-257
UACC-62 = system: UACC-62
SNB-78 = system: SNB-78

Row | Compound | GI50 (786-0) | GI50 (A549) | GI50 (EKVX) | GI50 (HCC 2998) | GI50 (HOP-62) | GI50 (MCF7) | GI50 (MDA-N) | GI50 (OVCAR-8) | GI50 (RXF 393) | GI50 (SF-268) | GI50 (SF-295) | GI50 (SK-MEL-28) | GI50 (SK-MEL-2) | GI50 (SK-MEL-5) | GI50 (SN12C) | GI50 (SNB-19) | GI50 (SNB-75) | GI50 (UACC-257) | GI50 (UACC-62) | GI50 (SNB-78)
1 | CN(C)CCSCCO | > 100 µM (inactive) | > 100 µM (inactive) | > 100 µM (inactive) | > 100 µM (inactive) | > 100 µM (inactive) | > 100 µM (inactive) | > 100 µM (inactive) | > 100 µM (inactive) | > 100 µM (inactive) | > 100 µM (inactive) | > 100 µM (inactive) | > 100 µM (inactive) | > 100 µM (inactive) | > 100 µM (inactive) | > 100 µM (inactive) | > 100 µM (inactive) | > 100 µM (inactive) | > 100 µM (inactive) | > 100 µM (inactive) | –
2 | COc1cc(Cn2c3c(c4c(C(=O)NCCN(C)C)c(O)ccc42)C(=O)c2ccccc2C3=O)cc(OC)c1 | 0.501 µM (active) | 1.88 µM (inactive) | 1.82 µM (inactive) | 1.13 µM (inactive) | 2 µM (inactive) | 2 µM (inactive) | 1.63 µM (inactive) | 1.91 µM (inactive) | 1.68 µM (inactive) | 1.99 µM (inactive) | 1.92 µM (inactive) | 1.9 µM (inactive) | 1.8 µM (inactive) | 1.67 µM (inactive) | 1.85 µM (inactive) | 2.51 µM (inactive) | 1.91 µM (inactive) | 1.97 µM (inactive) | 1.91 µM (inactive) | –
3 | CC(=O)Oc1ccc(C2SCc3nc4ccccc4n32)cc1 (stereo not drawn) | 39.4 µM (inactive) | 32.2 µM (inactive) | 26.9 µM (inactive) | 33 µM (inactive) | 41 µM (inactive) | 8 µM (inactive) | 14.8 µM (inactive) | 18.7 µM (inactive) | 24.2 µM (inactive) | 21 µM (inactive) | 21.7 µM (inactive) | 52.7 µM (inactive) | 22.5 µM (inactive) | 24.7 µM (inactive) | 49.8 µM (inactive) | 50.6 µM (inactive) | 19.9 µM (inactive) | 33.5 µM (inactive) | 29.7 µM (inactive) | –
4 | CCOC(=O)CCC(NC(=O)c1ccc(Nc2nc3ccc(C(F)(F)F)cc3nc2-c2ccccc2)cc1)C(=O)OCC (stereo not drawn) | > 100 µM (inactive) | > 100 µM (inactive) | > 100 µM (inactive) | 28 µM (inactive) | > 100 µM (inactive) | 40.8 µM (inactive) | 19.6 µM (inactive) | > 100 µM (inactive) | 49 µM (inactive) | 55.6 µM (inactive) | > 100 µM (inactive) | 40.3 µM (inactive) | 19.1 µM (inactive) | 30.4 µM (inactive) | > 100 µM (inactive) | > 100 µM (inactive) | > 100 µM (inactive) | 17.5 µM (inactive) | 17.3 µM (inactive) | –
5 | COc1c(NC(C)=O)cc(C)cc1NC(C)=O | > 100 µM (inactive) | > 100 µM (inactive) | > 100 µM (inactive) | > 100 µM (inactive) | > 100 µM (inactive) | – | – | > 100 µM (inactive) | > 100 µM (inactive) | > 100 µM (inactive) | > 100 µM (inactive) | > 100 µM (inactive) | > 100 µM (inactive) | > 100 µM (inactive) | > 100 µM (inactive) | – | > 100 µM (inactive) | > 100 µM (inactive) | > 100 µM (inactive) | > 100 µM (inactive)
6 | Cc1ccc2nc3cc(C)c(=O)cc-3sc2c1 | > 100 µM (inactive) | 53.5 µM (inactive) | > 100 µM (inactive) | > 100 µM (inactive) | > 100 µM (inactive) | – | – | 56 µM (inactive) | – | 81.1 µM (inactive) | 94.2 µM (inactive) | > 100 µM (inactive) | > 100 µM (inactive) | 44.9 µM (inactive) | > 100 µM (inactive) | > 100 µM (inactive) | 18.7 µM (inactive) | 54.6 µM (inactive) | 28.7 µM (inactive) | > 100 µM (inactive)
7 | NC(CSc1nc2ccccn2c1[N+](=O)[O-])C(=O)O (stereo not drawn) | > 100 µM (inactive) | > 100 µM (inactive) | > 100 µM (inactive) | > 100 µM (inactive) | > 100 µM (inactive) | > 100 µM (inactive) | > 100 µM (inactive) | > 100 µM (inactive) | > 100 µM (inactive) | > 100 µM (inactive) | > 100 µM (inactive) | > 100 µM (inactive) | > 100 µM (inactive) | > 100 µM (inactive) | > 100 µM (inactive) | > 100 µM (inactive) | > 100 µM (inactive) | > 100 µM (inactive) | > 100 µM (inactive) | –
8 | O=C1C(NCCc2ccc(O)c(O)c2)=CC(=O)c2ncccc21 | 15.3 µM (inactive) | 14.9 µM (inactive) | 17.6 µM (inactive) | 13 µM (inactive) | 19.2 µM (inactive) | 4.02 µM (inactive) | 2.03 µM (inactive) | 13.4 µM (inactive) | 13.8 µM (inactive) | 13.3 µM (inactive) | 12.6 µM (inactive) | 11.8 µM (inactive) | 3.1 µM (inactive) | 2.93 µM (inactive) | 10.1 µM (inactive) | 18.5 µM (inactive) | 5.96 µM (inactive) | 5.36 µM (inactive) | 5.37 µM (inactive) | –
